Experimental findings from the NIST ThermoML archive (doi:10.1021/je400158p) are described below.

Numbers after ± are expanded uncertainties.

The nature of the series: excess molar enthalpy (molar enthalpy of mixing); xn = mol fraction of the nth substance listed. Particulars: 298.15 K, 101 kPa, Liquid, Calvet calorimetry.

In the case of `CCn1cc[n+](C)c1.COP(=O)([O-])OC` [1-ethyl-3-methylimidazolium dimethylphosphate] + CCO, the excess molar enthalpy by setting is: (x1 = 0.1) -0.311 ± 0.00406 kcal/mol; (x1 = 0.2) -0.5184 ± 0.00478 kcal/mol; (x1 = 0.4) -0.6726 ± 0.0055 kcal/mol; (x1 = 0.7) -0.4333 ± 0.00406 kcal/mol.
Regarding `CCn1cc[n+](C)c1.COP(=O)([O-])OC` [1-ethyl-3-methylimidazolium dimethylphosphate] + CO, the excess molar enthalpy is -0.6728 ± 0.0055 kcal/mol (x1 = 0.2), -0.8537 ± 0.00669 kcal/mol (x1 = 0.4) and -0.5566 ± 0.00478 kcal/mol (x1 = 0.7).
In the case of `CCn1cc[n+](C)c1.COP(=O)([O-])OC` [1-ethyl-3-methylimidazolium dimethylphosphate] + O, the excess molar enthalpy runs as follows: (x1 = 0.1) -0.881 ± 0.00813 kcal/mol; (x1 = 0.2) -1.3 ± 0.0105 kcal/mol; (x1 = 0.4) -1.463 ± 0.0115 kcal/mol; (x1 = 0.5) -1.381 ± 0.011 kcal/mol; (x1 = 0.7) -1.008 ± 0.00813 kcal/mol.
Consider `OCCOCCO` [diethylene glycol] + O, for which the excess molar enthalpy (x1 = 0.2) was -0.291 ± 0.00335 kcal/mol, the excess molar enthalpy (x1 = 0.401) was -0.291 ± 0.00335 kcal/mol, the excess molar enthalpy (x1 = 0.501) was -0.275 ± 0.00311 kcal/mol and the excess molar enthalpy (x1 = 0.804) was -0.111 ± 0.00263 kcal/mol.
